Source: patent EP3598902A1, “VITAMIN B2 AND ITS USE” (Société des Produits Nestlé S.A., priority 2014, dated 2016)

System: L6 differentiated muscle cells
Test: glucose uptake (radiolabelled 2-deoxy-D-[1,2 3H] glucose) in differentiated muscle cells, absence of insulin
Format: cell-based
Details: ingredient G 1 µM, ingredient K 10 nM, versus control or basal condition
Procedure: Ingredient G refers to vitamin B2, ingredient k refers to 1,25-dihydroxyvitamin D3, and ingredient J refers to zinc chloride.
Ingredient G was tested at 1 µM. Ingredient K was tested at 10 nM, and ingredient J was tested at 20 µM.
Each ingredient was tested in triplicate.

SMILES: Cc1cc2nc3c(=O)[nH]c(=O)nc-3n(C[C@H](O)[C@H](O)[C@H](O)CO)c2cc1C [ingredient G, vitamin B2]
- glucose uptake (long term incubation (24 hrs)): increases in glucose uptake were observed
- glucose uptake (short term incubation (2 hrs), ingredient J 20 µM): increases in glucose uptake were observed
